# Test results from ChEMBL document CHEMBL5030562, “Synthesis and antiviral evaluation of cytisine derivatives against dengue virus types 1 and 2” (Bioorg Med Chem Lett, 2021).
# Activity calls are given as the source filed them. No cut-off for these calls is given here.
# Test system: dengue virus type 1
# Experiment: Antiviral activity against DENV1 infected in African green monkey Vero E6 cells assessed as reduction in induced cytopathic effect at 10 uM after 96 hrs by immunofluorescent staining based inverted microscopic analysis
# Format: functional, organism-based
# Conditions: not given
row,SMILES,Activity
1,"CN1C[C@H]2C[C@@H](C1)c1ccc(NCc3cn(C)c(=O)n(C)c3=O)c(=O)n1C2 (single isomer, unassigned)",Active
2,Cn1cc(CNc2ccc3n(c2=O)C[C@@H]2C[C@H]3CN(C(=O)Nc3ccccc3)C2)c(=O)n(C)c1=O,Active
3,CN1C[C@H]2C[C@@H](C1)c1ccc([N+](=O)[O-])c(=O)n1C2,Active
4,CN1C[C@H]2C[C@@H](C1)c1ccc(NCc3ccc(O)cc3)c(=O)n1C2,Active

# Test system: dengue virus type 2
# Experiment: Antiviral activity against Dengue virus 2 infected in African green monkey Vero E6 cells assessed as inhibition of viral replication at post entry stage measured after 96 hrs by DAPI staining based fluorescence microscopic analysis
# Format: functional, organism-based
# Conditions: Vero C1008, 96 h
row,SMILES,IC50 [nM]
1,"CN1C[C@H]2C[C@@H](C1)c1ccc(NCc3cn(C)c(=O)n(C)c3=O)c(=O)n1C2 (single isomer, unassigned)",237
2,Cn1cc(CNc2ccc3n(c2=O)C[C@@H]2C[C@H]3CN(C(=O)Nc3ccccc3)C2)c(=O)n(C)c1=O,< 100
3,CN1C[C@H]2C[C@@H](C1)c1ccc([N+](=O)[O-])c(=O)n1C2,1370
4,CN1C[C@H]2C[C@@H](C1)c1ccc(NCc3ccc(O)cc3)c(=O)n1C2,< 100

# Test system: A549
# Experiment: Cytotoxicity against human A549 cells assessed as reduction in cell viability by MTT assay
# Format: functional
# Conditions: not given
row,SMILES,CC50 [µM]
1,"CN1C[C@H]2C[C@@H](C1)c1ccc(NCc3cn(C)c(=O)n(C)c3=O)c(=O)n1C2 (single isomer, unassigned)",> 50
2,Cn1cc(CNc2ccc3n(c2=O)C[C@@H]2C[C@H]3CN(C(=O)Nc3ccccc3)C2)c(=O)n(C)c1=O,> 50
3,CN1C[C@H]2C[C@@H](C1)c1ccc([N+](=O)[O-])c(=O)n1C2,> 50
4,CN1C[C@H]2C[C@@H](C1)c1ccc(NCc3ccc(O)cc3)c(=O)n1C2,> 50

# Test system: dengue virus type 1
# Experiment: Selectivity index, ratio of CC50 for cytotoxicity in African green monkey Vero E6 cells to IC50 for Antiviral activity against DENV1 infected in African green monkey Vero E6 cells
# Format: functional, Vero C1008
# Conditions: not given
row,SMILES,Ratio CC50/IC50
1,"CN1C[C@H]2C[C@@H](C1)c1ccc(NCc3cn(C)c(=O)n(C)c3=O)c(=O)n1C2 (single isomer, unassigned)",>36.2
2,Cn1cc(CNc2ccc3n(c2=O)C[C@@H]2C[C@H]3CN(C(=O)Nc3ccccc3)C2)c(=O)n(C)c1=O,>102
3,CN1C[C@H]2C[C@@H](C1)c1ccc([N+](=O)[O-])c(=O)n1C2,>20.8
4,CN1C[C@H]2C[C@@H](C1)c1ccc(NCc3ccc(O)cc3)c(=O)n1C2,>51.5

# Test system: dengue virus type 2
# Experiment: Antiviral activity against DENV2 infected in African green monkey Vero E6 cells assessed as inhibition of virus induced cytopathic effect measured after 96 hrs by immunofluorescent staining based inverted microscopic analysis
# Format: functional, organism-based
# Conditions: Vero C1008, 96 h
row,SMILES,IC50 [nM]
1,"CN1C[C@H]2C[C@@H](C1)c1ccc(NCc3cn(C)c(=O)n(C)c3=O)c(=O)n1C2 (single isomer, unassigned)",< 100
2,Cn1cc(CNc2ccc3n(c2=O)C[C@@H]2C[C@H]3CN(C(=O)Nc3ccccc3)C2)c(=O)n(C)c1=O,< 100
3,CN1C[C@H]2C[C@@H](C1)c1ccc(NCc3ccc(O)cc3)c(=O)n1C2,2300

# Test system: not listed separately
# Experiment: Selectivity index, ratio of CC50 for cytotoxicity in human A549 cells to IC50 for Antiviral activity against DENV2 infected in African green monkey Vero E6 cells
# Format: toxicity, cell-based
# Conditions: not given
row,SMILES,selectivity ratio
1,"CN1C[C@H]2C[C@@H](C1)c1ccc(NCc3cn(C)c(=O)n(C)c3=O)c(=O)n1C2 (single isomer, unassigned)",> 75.8
2,Cn1cc(CNc2ccc3n(c2=O)C[C@@H]2C[C@H]3CN(C(=O)Nc3ccccc3)C2)c(=O)n(C)c1=O,> 106
3,CN1C[C@H]2C[C@@H](C1)c1ccc([N+](=O)[O-])c(=O)n1C2,> 64.9
4,CN1C[C@H]2C[C@@H](C1)c1ccc(NCc3ccc(O)cc3)c(=O)n1C2,> 64.1

# Test system: dengue virus type 2
# Experiment: Antiviral activity against DENV2 infected in African green monkey Vero E6 cells assessed as inhibition of virus induced cytopathic effect at 10 uM measured after 96 hrs by immunofluorescent staining based inverted microscopic analysis relative to control
# Format: functional
# Conditions: Vero C1008
row,SMILES,inhibition at 10 µM [%]
1,"CN1C[C@H]2C[C@@H](C1)c1ccc(NCc3cn(C)c(=O)n(C)c3=O)c(=O)n1C2 (single isomer, unassigned)",79.2
2,Cn1cc(CNc2ccc3n(c2=O)C[C@@H]2C[C@H]3CN(C(=O)Nc3ccccc3)C2)c(=O)n(C)c1=O,74
3,CN1C[C@H]2C[C@@H](C1)c1ccc([N+](=O)[O-])c(=O)n1C2,76.7
4,CN1C[C@H]2C[C@@H](C1)c1ccc(NCc3ccc(O)cc3)c(=O)n1C2,70.6

# Test system: dengue virus type 2
# Experiment: Antiviral activity against DENV2 infected in human A549 cells assessed as inhibition of virus induced cytopathic effect measured after 96 hrs by immunofluorescent staining based inverted microscopic analysis
# Format: functional, organism-based
# Conditions: A549, 96 h
row,SMILES,IC50 [nM]
1,"CN1C[C@H]2C[C@@H](C1)c1ccc(NCc3cn(C)c(=O)n(C)c3=O)c(=O)n1C2 (single isomer, unassigned)",660
2,Cn1cc(CNc2ccc3n(c2=O)C[C@@H]2C[C@H]3CN(C(=O)Nc3ccccc3)C2)c(=O)n(C)c1=O,470
3,CN1C[C@H]2C[C@@H](C1)c1ccc([N+](=O)[O-])c(=O)n1C2,770
4,CN1C[C@H]2C[C@@H](C1)c1ccc(NCc3ccc(O)cc3)c(=O)n1C2,780

# Test system: Influenza A virus
# Experiment: Antiviral activity against Influenza A virus
# Format: functional, organism-based
# Conditions: not given
row,SMILES,IC50 [nM]
1,"CN1C[C@H]2C[C@@H](C1)c1ccc(NCc3cn(C)c(=O)n(C)c3=O)c(=O)n1C2 (single isomer, unassigned)",> 3000
2,Cn1cc(CNc2ccc3n(c2=O)C[C@@H]2C[C@H]3CN(C(=O)Nc3ccccc3)C2)c(=O)n(C)c1=O,> 3000
3,CN1C[C@H]2C[C@@H](C1)c1ccc([N+](=O)[O-])c(=O)n1C2,> 3000
4,CN1C[C@H]2C[C@@H](C1)c1ccc(NCc3ccc(O)cc3)c(=O)n1C2,> 3000

# Test system: Human respirovirus 3
# Experiment: Antiviral activity against Parainfluenza virus type 3
# Format: functional, organism-based
# Conditions: not given
row,SMILES,IC50 [nM]
1,"CN1C[C@H]2C[C@@H](C1)c1ccc(NCc3cn(C)c(=O)n(C)c3=O)c(=O)n1C2 (single isomer, unassigned)",> 3000
2,Cn1cc(CNc2ccc3n(c2=O)C[C@@H]2C[C@H]3CN(C(=O)Nc3ccccc3)C2)c(=O)n(C)c1=O,> 3000
3,CN1C[C@H]2C[C@@H](C1)c1ccc([N+](=O)[O-])c(=O)n1C2,> 3000
4,CN1C[C@H]2C[C@@H](C1)c1ccc(NCc3ccc(O)cc3)c(=O)n1C2,> 3000

# Test system: dengue virus type 2
# Experiment: Antiviral activity against DENV2 infected in African green monkey Vero E6 cells assessed as reduction in induced cytopathic effect at 10 uM after 96 hrs by immunofluorescent staining based inverted microscopic analysis
# Format: functional, organism-based
# Conditions: not given
row,SMILES,Activity
1,"CN1C[C@H]2C[C@@H](C1)c1ccc(NCc3cn(C)c(=O)n(C)c3=O)c(=O)n1C2 (single isomer, unassigned)",Active
2,Cn1cc(CNc2ccc3n(c2=O)C[C@@H]2C[C@H]3CN(C(=O)Nc3ccccc3)C2)c(=O)n(C)c1=O,Active
3,CN1C[C@H]2C[C@@H](C1)c1ccc([N+](=O)[O-])c(=O)n1C2,Active
4,CN1C[C@H]2C[C@@H](C1)c1ccc(NCc3ccc(O)cc3)c(=O)n1C2,Active

# Test system: dengue virus type 2
# Experiment: Antiviral activity against Dengue virus 2 infected in African green monkey Vero E6 cells assessed as inhibition of viral replication at attachment stage measured after 96 hrs by DAPI staining based fluorescence microscopic analysis
# Format: functional, organism-based
# Conditions: Vero C1008, 96 h
row,SMILES,IC50 [µM]
1,"CN1C[C@H]2C[C@@H](C1)c1ccc(NCc3cn(C)c(=O)n(C)c3=O)c(=O)n1C2 (single isomer, unassigned)",9.3
2,Cn1cc(CNc2ccc3n(c2=O)C[C@@H]2C[C@H]3CN(C(=O)Nc3ccccc3)C2)c(=O)n(C)c1=O,6.45
3,CN1C[C@H]2C[C@@H](C1)c1ccc([N+](=O)[O-])c(=O)n1C2,0.837
4,CN1C[C@H]2C[C@@H](C1)c1ccc(NCc3ccc(O)cc3)c(=O)n1C2,> 10

# Test system: not listed separately
# Experiment: Cytotoxicity against African green monkey Vero E6 cells assessed as reduction in cell viability by MTT assay
# Format: cell-based, Vero C1008
# Conditions: chlorocebus sabaeus
row,SMILES,CC50 [µM]
1,"CN1C[C@H]2C[C@@H](C1)c1ccc(NCc3cn(C)c(=O)n(C)c3=O)c(=O)n1C2 (single isomer, unassigned)",> 50
2,Cn1cc(CNc2ccc3n(c2=O)C[C@@H]2C[C@H]3CN(C(=O)Nc3ccccc3)C2)c(=O)n(C)c1=O,> 50
3,CN1C[C@H]2C[C@@H](C1)c1ccc([N+](=O)[O-])c(=O)n1C2,> 50
4,CN1C[C@H]2C[C@@H](C1)c1ccc(NCc3ccc(O)cc3)c(=O)n1C2,> 50

# Test system: Hepatitis B virus
# Experiment: Antiviral activity against Hepatitis B virus
# Format: functional, organism-based
# Conditions: not given
row,SMILES,IC50 [nM]
1,"CN1C[C@H]2C[C@@H](C1)c1ccc(NCc3cn(C)c(=O)n(C)c3=O)c(=O)n1C2 (single isomer, unassigned)",> 3000
2,Cn1cc(CNc2ccc3n(c2=O)C[C@@H]2C[C@H]3CN(C(=O)Nc3ccccc3)C2)c(=O)n(C)c1=O,> 3000
3,CN1C[C@H]2C[C@@H](C1)c1ccc([N+](=O)[O-])c(=O)n1C2,> 3000
4,CN1C[C@H]2C[C@@H](C1)c1ccc(NCc3ccc(O)cc3)c(=O)n1C2,> 3000

# Test system: dengue virus type 1
# Experiment: Antiviral activity against DENV1 infected in African green monkey Vero E6 cell assessed as inhibition of virus induced cytopathic effect at 10 uM measured after 96 hrs by immunofluorescent staining based inverted microscopic analysis relative to control
# Format: functional
# Conditions: Vero C1008
row,SMILES,inhibition at 10 µM [%]
1,"CN1C[C@H]2C[C@@H](C1)c1ccc(NCc3cn(C)c(=O)n(C)c3=O)c(=O)n1C2 (single isomer, unassigned)",73.9
2,Cn1cc(CNc2ccc3n(c2=O)C[C@@H]2C[C@H]3CN(C(=O)Nc3ccccc3)C2)c(=O)n(C)c1=O,57.7
3,CN1C[C@H]2C[C@@H](C1)c1ccc([N+](=O)[O-])c(=O)n1C2,61.2
4,CN1C[C@H]2C[C@@H](C1)c1ccc(NCc3ccc(O)cc3)c(=O)n1C2,64.8

# Test system: dengue virus type 2
# Experiment: Antiviral activity against Dengue virus 2 infected in African green monkey Vero E6 cells assessed as inhibition of viral replication at entry stage measured after 96 hrs by DAPI staining based fluorescence microscopic analysis
# Format: functional, organism-based
# Conditions: Vero C1008, 96 h
row,SMILES,IC50 [nM]
1,"CN1C[C@H]2C[C@@H](C1)c1ccc(NCc3cn(C)c(=O)n(C)c3=O)c(=O)n1C2 (single isomer, unassigned)",1840
2,Cn1cc(CNc2ccc3n(c2=O)C[C@@H]2C[C@H]3CN(C(=O)Nc3ccccc3)C2)c(=O)n(C)c1=O,844
3,CN1C[C@H]2C[C@@H](C1)c1ccc([N+](=O)[O-])c(=O)n1C2,1130
4,CN1C[C@H]2C[C@@H](C1)c1ccc(NCc3ccc(O)cc3)c(=O)n1C2,471

# Test system: not listed separately
# Experiment: Selectivity index, ratio of CC50 for cytotoxicity in African green monkey Vero E6 cells to IC50 for Antiviral activity against DENV2 infected in African green monkey Vero E6 cells
# Format: toxicity, cell-based, Vero C1008
# Conditions: read-out: Ratio CC50/IC50
row,SMILES,selectivity ratio
1,"CN1C[C@H]2C[C@@H](C1)c1ccc(NCc3cn(C)c(=O)n(C)c3=O)c(=O)n1C2 (single isomer, unassigned)",> 109
2,Cn1cc(CNc2ccc3n(c2=O)C[C@@H]2C[C@H]3CN(C(=O)Nc3ccccc3)C2)c(=O)n(C)c1=O,> 500
3,CN1C[C@H]2C[C@@H](C1)c1ccc([N+](=O)[O-])c(=O)n1C2,> 500
4,CN1C[C@H]2C[C@@H](C1)c1ccc(NCc3ccc(O)cc3)c(=O)n1C2,> 21.7

# Test system: dengue virus type 1
# Experiment: Antiviral activity against DENV1 infected in African green monkey Vero E6 cells assessed as inhibition of virus induced cytopathic effect measured after 96 hrs by immunofluorescent staining based inverted microscopic analysis
# Format: functional, organism-based
# Conditions: Vero C1008, 96 h
row,SMILES,IC50 [nM]
1,"CN1C[C@H]2C[C@@H](C1)c1ccc(NCc3cn(C)c(=O)n(C)c3=O)c(=O)n1C2 (single isomer, unassigned)",1380
2,Cn1cc(CNc2ccc3n(c2=O)C[C@@H]2C[C@H]3CN(C(=O)Nc3ccccc3)C2)c(=O)n(C)c1=O,490
3,CN1C[C@H]2C[C@@H](C1)c1ccc([N+](=O)[O-])c(=O)n1C2,2400
4,CN1C[C@H]2C[C@@H](C1)c1ccc(NCc3ccc(O)cc3)c(=O)n1C2,970
